Drawing on ChEMBL document CHEMBL3507680, “University of Dundee, Gates Library screen for HepG2 cell viability”, this text covers cytotoxicity for 74 molecules.

This data set is described as follows: Human HepG2 cell viability assay in 384 well format. Type of data set: toxicity, cell-based. More on the design: dose 125 nL, time 70.5 hour; concentration not given beside the values. Particulars: HepG2 cells, read-out: Inhibition.
Consider `CC(Cn1cccn1)NC(=O)N1CCN(Cc2ccco2)CC1` (centres undefined), for which the cytotoxicity at 70.5 h amounted to 0.805%.

Regarding `Cc1ccoc1C(=O)N1CCCC(CNS(C)(=O)=O)C1` (centres undefined), the cytotoxicity at 70.5 h amounted to 18%.

Consider `Cc1ccc(-c2ncc(C(=O)NCCNC(=O)C3CC3)s2)c(C)c1`, for which the cytotoxicity at 70.5 h was -6.37%.

Turning to `Cc1nc(C(C)C)sc1C(=O)NCCNc1ncccc1C#N`, the cytotoxicity at 70.5 h was -1.44%.

With `CC(=O)N1CCCN(C(=O)NC(C)Cn2cccn2)CC1` (centres undefined), the cytotoxicity at 70.5 h is -3.94%.

On to `CN1N=C(C(=O)N2CCCC(n3cccn3)C2)CCC1=O` (centres undefined), for which the cytotoxicity at 70.5 h is -3.66%.

As to `COc1cc(C)nc(N2CCN(C(=O)c3cc(C)no3)CC2)n1`, the cytotoxicity at 70.5 h worked out at 26.3%.

Consider `Cc1ccc(-c2ncc(C(=O)NS(C)(=O)=O)s2)c(C)c1`, for which the cytotoxicity at 70.5 h is -1.13%.

`CN(Cc1cn(-c2ccccc2)nn1)C1CCCN(c2cccnn2)C1` (centres undefined): the cytotoxicity at 70.5 h was -3.67%.

With `Cc1nc(C)n(C2CCCN(C(=O)c3csc(C)n3)C2)n1` (centres undefined), the cytotoxicity at 70.5 h was -5.49%.

`O=C(c1cc2cc(I)ccc2[nH]1)N1CCC(Nc2cccnn2)CC1`: the cytotoxicity at 70.5 h came to 1.42%.

For the molecule `CN(CCNC(=O)NCc1ccsc1)C1CCCC1`, the cytotoxicity at 70.5 h is -8.28%.

Turning to `CC(C)CCc1nc(CNCC2CN(C)CCO2)cs1` (centres undefined), the cytotoxicity at 70.5 h was -1.37%.

Take `Cc1nccn1C1CCCN(C(=O)c2cccc(OCC(N)=O)c2)C1` (centres undefined): the cytotoxicity at 70.5 h is -10.4%.

With `Cc1nc(CNCC2CN(C3CC3)CCO2)cs1` (centres undefined), the cytotoxicity at 70.5 h worked out at 23.8%.

Consider `Cc1nc(C2CCCN2C(=O)CCCn2cncn2)no1` (centres undefined), for which the cytotoxicity at 70.5 h was -7.37%.

On to `Cn1cnc2c1CCN(Cc1csc(C3CCCCC3)n1)C2`, for which the cytotoxicity at 70.5 h is -14.4%.

As for `Cc1noc(C(C)C)c1C(=O)NCCCN1CCC(C)CC1`, the cytotoxicity at 70.5 h was -13%.

Consider `Cc1noc(C(C)C)c1C(=O)NCCN1CCOCC1`, for which the cytotoxicity at 70.5 h was -17.9%.

As for `Cc1noc(C(C)C)c1C(=O)NCCC(=O)N1CCCCC1`, the cytotoxicity at 70.5 h is -19%.

In the case of `COCCN1CCN(CC(C)(O)c2cccc(C(F)(F)F)c2)CC1` (centres undefined), the cytotoxicity at 70.5 h was -12.6%.

In the case of `COCc1nc(C(=O)N2CCCC(n3ccnc3C)C2)cs1` (centres undefined), the cytotoxicity at 70.5 h was -18.6%.

Consider `CCc1n[nH]c(C2CN(C(=O)c3ccnc(C)n3)CCO2)n1` (centres undefined), for which the cytotoxicity at 70.5 h is 13.5%.

As to `CN(C)c1ncccc1CNS(=O)(=O)c1ccc(F)cc1F`, the cytotoxicity at 70.5 h was -12.9%.

As for `CC(=O)N1CCCN(C(=O)NCCOc2ccc3c(c2)OCO3)CC1`, the cytotoxicity at 70.5 h was -8.5%.

Take `CC(C)CS(=O)(=O)CC(=O)NC(C)c1nnc2n1CCC2` (centres undefined): the cytotoxicity at 70.5 h is -2.61%.

`O=C(NCCOc1ccc2c(c1)OCO2)N1CCCC(CO)C1` (centres undefined): the cytotoxicity at 70.5 h was -10%.

`Cc1nn(C)c(N(C)C)c1CNC(C)COc1ccccc1F` (centres undefined): the cytotoxicity at 70.5 h was -11.1%.

With `CC(NC(=O)CCC1CCCCC1)c1nnc2n1CCC2` (centres undefined), the cytotoxicity at 70.5 h was -4.91%.

With `c1ccc(-n2ccc(CN3CCCCC3Cn3cncn3)n2)cc1` (centres undefined), the cytotoxicity at 70.5 h is -12.9%.

Regarding `Cc1nccn1C1CCCN(C(=O)c2cccc(Cn3ccnc3)c2)C1` (centres undefined), the cytotoxicity at 70.5 h was -1.32%.

`COCc1nc(C(=O)N2CCCC(n3ccnc3C(C)C)C2)cs1` (centres undefined): the cytotoxicity at 70.5 h is -12.2%.

In the case of `CCn1nc2c(cc1=O)CN(CC(=O)Nc1nnc(C)s1)CC2`, the cytotoxicity at 70.5 h was -15%.

Consider `CN1CCOC(CNCc2csc(C3CCCC3)n2)C1` (centres undefined), for which the cytotoxicity at 70.5 h was -1.7%.

In the case of `CCc1nc(C2CCCN2C(=O)CCCn2cncn2)no1` (centres undefined), the cytotoxicity at 70.5 h is -8.49%.

Consider `Cc1nnc(NC(=O)CN2CCc3nn(C(C)C)c(=O)cc3C2)s1`, for which the cytotoxicity at 70.5 h was -6.14%.

As for `CC1CCCN(C(=O)CNC(=O)c2ccoc2)C1` (centres undefined), the cytotoxicity at 70.5 h was found to be 49.9%.

For the molecule `Cc1cc(CN2CCCC(Cn3cncn3)C2)no1` (centres undefined), the cytotoxicity at 70.5 h turned out to be 16%.

On to `CN(C)c1ccc(C(=O)N2CCCN(Cc3cscn3)CC2)nn1`, for which the cytotoxicity at 70.5 h was 27.8%.

In the case of `COc1ccc(-c2nnc(CNCCn3cc(C)cn3)o2)cc1`, the cytotoxicity at 70.5 h was 14.6%.

Consider `CN1CCC/C1=N\S(=O)(=O)c1ccc(NC(=O)c2ccsc2)cc1`, for which the cytotoxicity at 70.5 h was -11.8%.

`Cc1ccc(C(=O)Nc2ccc(S(=O)(=O)/N=C3\CCCN3C)cc2)s1`: the cytotoxicity at 70.5 h is -10%.

With `CCCc1nc(CN2CCCC(Cn3cncn3)C2)no1` (centres undefined), the cytotoxicity at 70.5 h stood at 3.03%.

Turning to `COC(CNC(=O)N1CCC(n2cncn2)CC1)c1ccccc1` (centres undefined), the cytotoxicity at 70.5 h worked out at 6.02%.

In the case of `Cc1ccc(N2CCCC(NCC(=O)NCC3CC3)C2)nn1` (centres undefined), the cytotoxicity at 70.5 h is 1.19%.

As for `CCc1nc(CN2CCCN(C(=O)CCc3ccco3)CC2)cs1`, the cytotoxicity at 70.5 h amounted to 27.3%.

For the molecule `O=C(c1cnc(C2CC2)s1)N1CCCCC1Cn1cccn1` (centres undefined), the cytotoxicity at 70.5 h was 0.664%.

Regarding `CCc1cc(C)c(C(=O)N2CCCC2CC(=O)c2cnn(C)c2)o1` (centres undefined), the cytotoxicity at 70.5 h amounted to 6.36%.

For the molecule `CCc1nc(CN(C)C2CCN(CCn3cc(C#N)cn3)C2)no1` (centres undefined), the cytotoxicity at 70.5 h came to 37.1%.

As to `c1csc(-c2nc(CN3CCOC(Cn4cncn4)C3)co2)c1` (centres undefined), the cytotoxicity at 70.5 h is -0.51%.

As for `O=C(c1cnc(-c2cccs2)s1)N1CCCN2CCCC2C1` (centres undefined), the cytotoxicity at 70.5 h is -5.78%.

For `Cc1ccc(N2CCCC(NCc3cscn3)C2)nn1` (centres undefined), the cytotoxicity at 70.5 h was -11.8%.

Turning to `CCOc1nnc(CNC2CCCN(c3ccc(C)nn3)C2)s1` (centres undefined), the cytotoxicity at 70.5 h is -1.05%.

On to `Cc1ccc(NC2CCN(C(=O)Cc3csc(C)n3)CC2)nn1`, for which the cytotoxicity at 70.5 h was -9.75%.

For the molecule `COc1ccccc1C(=O)N1CCCC1Cn1cc(C)cn1` (centres undefined), the cytotoxicity at 70.5 h was -14.4%.

Turning to `CCCc1nc(CN2CCOC(CNc3cccnn3)C2)cs1` (centres undefined), the cytotoxicity at 70.5 h was -11.7%.

`CC(O)CN1CCN(C(=O)c2ccc(Cn3cccn3)cc2)CC1` (centres undefined): the cytotoxicity at 70.5 h was -7.08%.

In the case of `CCc1nc(CN(C)C2CCN(Cc3ccc(C#N)cc3F)C2)no1` (centres undefined), the cytotoxicity at 70.5 h worked out at 14.4%.

Turning to `Cc1nn(C)c(Cl)c1C1CCCN1C(=O)c1nccnc1N` (centres undefined), the cytotoxicity at 70.5 h is -11.6%.

For the molecule `O=C(NCCc1cccc(F)c1)NCC(O)c1cccc(F)c1` (centres undefined), the cytotoxicity at 70.5 h is -5.32%.

With `COCc1ccccc1CNCc1c(C)nn(C)c1N(C)C`, the cytotoxicity at 70.5 h is -0.163%.

Turning to `CN(C)c1ccc(CCNC(=O)NCc2ccc(N(C)C)nc2)cc1`, the cytotoxicity at 70.5 h was -3.36%.

As for `CCOc1cccc(CNC(=O)NCC(O)c2cccc(F)c2)c1` (centres undefined), the cytotoxicity at 70.5 h turned out to be 10.6%.

Turning to `O=C(c1cccc2c1OCO2)N1CCCC(n2cccn2)C1` (centres undefined), the cytotoxicity at 70.5 h was -9.01%.

With `Fc1cccc(-c2nc(CN3CCOC(Cn4cccn4)C3)co2)c1` (centres undefined), the cytotoxicity at 70.5 h was -11.5%.

Consider `O=C(NCCN1CCOCC1)NCC(O)c1cccc(F)c1` (centres undefined), for which the cytotoxicity at 70.5 h was -3.47%.

As for `Cc1nc(C)n(CC2CCCN(c3ncnc4c3CCC4)C2)n1` (centres undefined), the cytotoxicity at 70.5 h was 26.1%.

Take `Cc1nn(C)c(Cl)c1C1CCCN1C(=O)c1cc(Cl)c[nH]1` (centres undefined): the cytotoxicity at 70.5 h was -17.6%.

`O=C(O)c1ccc(S(=O)(=O)Nc2ccc(Cl)c(F)c2)c(F)c1`: the cytotoxicity at 70.5 h was -5.1%.

With `COCCOc1ncccc1CNCc1c(C)nn(C)c1N(C)C`, the cytotoxicity at 70.5 h stood at 2.93%.

With `c1cnc(-c2nc(CN3CCOC(Cn4cncn4)C3)cs2)nc1` (centres undefined), the cytotoxicity at 70.5 h turned out to be 11.7%.

Turning to `CC(C)(C)c1nc(CN2CCCC(Cn3cncn3)C2)cs1` (centres undefined), the cytotoxicity at 70.5 h came to 25.2%.

Take `CCOC(=O)NC(C(=O)NCc1ccc(N2CCCCC2)nc1)C(C)C` (centres undefined): the cytotoxicity at 70.5 h was -8.83%.

Take `COCc1cccc(CNCc2c(C)nn(C)c2N(C)C)c1`: the cytotoxicity at 70.5 h is 42.4%.
